The text below walks through data of ChEMBL document CHEMBL1201862, “PubChem BioAssay data set” (2004).

Common to all, as to experiment: inhibition of tumour cell growth, NCI panel, 48 h
The subject of test [1] is MOLT-4.
Test [2] relates to HCT-116.
In test [3] the test system is SNB-75.
In test [4] the test system is HOP-62.
Test [5] concerns HOP-92.
Test [6] relates to 786-0.
In test [7] the test system is SK-MEL-5.
Test [8] has as its system SW-620.
Test [9] deals with HT-29.
In test [10] the test system is NCI-H23.
Test [11] deals with T47D.
Test [12] relates to SN12C.
Test [13] has as its system SNB-19.
The test system of test [14] is HCT-15.
The test system of test [15] is LOX IMVI.
The subject of test [16] is MDA-MB-435.
For test [17], the system named is SF-268.
The subject of test [18] is COLO 205.
Test [19] relates to TK-10.
Test [20] concerns HCC 2998.

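In this assay, cells in 96-well plates receive the compound at five concentrations for 48 hours. Endpoints are linearly interpolated between the surrounding concentrations. At the GI50, growth is halved.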 Calls of active or inactive are those of the source. Rule as the data show it: active = GI50 up to about 1.1 µM and inactive = higher.

`O=c1c2c(nc3[nH]ccn13)CCC2`: the GI50 in test [1], in test [2], in test [3], in [4], in [5] and in [6] was > 10 µM (inactive) throughout. Further, the GI50 in [7], in test [8], in test [9], in test [10], in test [11] and in [12] was > 10 µM (inactive) in each case. The GI50 in test [13] is > 10 µM (inactive); in test [14], > 10 µM; in test [15], > 10 µM (inactive); in test [16] it was > 10 µM (inactive); in [17], > 10 µM (inactive); in test [18], > 10 µM (inactive). Further, the GI50 in test [19] is > 10 µM (inactive).

Regarding `C(/C=N/c1ccccc1)=C(/Nc1ccccc1)c1ccc2ccccc2c1`, the GI50 in test [1] is 1 µM (active); in test [2], 1.87 µM (inactive); in test [3] it was 1.64 µM (inactive); in test [4] it was 1.82 µM (inactive); in test [5] it was 9.62 µM (inactive); in [6], 2.45 µM (inactive). Moreover, the GI50 in test [7] was 2.63 µM (inactive); in test [8], 3.88 µM (inactive); in [9], 1.77 µM (inactive); in test [10], 2.13 µM (inactive); in [11], 2.36 µM (inactive); in test [12], 1.6 µM (inactive). The GI50 is 2.29 µM (inactive) in test [13]; 1.06 µM in test [14]; 1.53 µM (inactive) in test [15]; 0.299 µM (active) in test [16]; 4.71 µM (inactive) in test [17]; 1.85 µM (inactive) in [18]. In addition, in [19], the GI50 was 1.45 µM (inactive).

In the case of `COc1ccc2c(c1)CC[C@@H]1[C@@H]2CC[C@]2(C)C(=O)/C(=C/c3cc(OC)c(OC)c(OC)c3)C[C@@H]12`, the GI50 was 95.9 µM (inactive) in test [1]; 31.6 µM (inactive) in test [2]; 19.4 µM (inactive) in test [3]; 17 µM (inactive) in test [4]; 22.2 µM (inactive) in test [5]; 19.2 µM (inactive) in [6]. In addition, the GI50 in test [7] is 71.3 µM (inactive); in test [8], > 100 µM (inactive); in test [10] it was 25 µM (inactive); in test [11], 67 µM (inactive); in [20] it was 42.8 µM (inactive); in test [13] it was 52.6 µM (inactive). Moreover, the GI50 in [14] is 70 µM; in [16] it was > 100 µM (inactive); in [17], 0.0149 µM (active); in [18], 87.1 µM (inactive); in [19], 19.4 µM (inactive).

`O=C1/C(=C2/CCCN2)C(c2ccc[nH]2)=NN1c1ccccc1`: the GI50 in test [1], in test [2], in test [3], in [5], in test [6] and in test [7] was > 100 µM (inactive) each time. The GI50 in [8], in test [9], in test [10], in test [11], in test [12] and in [13] was > 100 µM (inactive) throughout. Also, the GI50 was > 100 µM in [14]; > 100 µM (inactive) in [15]; > 100 µM (inactive) in test [16]; > 100 µM (inactive) in test [17]; > 100 µM (inactive) in [18]; > 100 µM (inactive) in test [19].

Turning to `O=C(Sc1c(-c2ccccc2)c(=O)n(-c2ccccc2)c(=S)n1-c1ccccc1)c1ccccc1`, the GI50 in [1] was 19.5 µM (inactive); in [2], 56 µM (inactive); in [3], 12.3 µM (inactive); in test [4] it was > 100 µM (inactive); in [5], 32.1 µM (inactive); in test [6] it was > 100 µM (inactive). For the same molecule, the GI50 in test [7] is 33.9 µM (inactive); in test [8] it was 28.6 µM (inactive); in test [9], 57.9 µM (inactive); in test [10] it was > 100 µM (inactive); in test [11], 71.1 µM (inactive); in test [12] it was > 100 µM (inactive). The GI50 in test [13] is > 100 µM (inactive); in test [14] it was 60.7 µM; in test [15], 26.4 µM (inactive); in [16], 93.3 µM (inactive); in test [17], > 100 µM (inactive); in [18], > 100 µM (inactive). For the same molecule, the GI50 in test [19] was > 100 µM (inactive).

As to `C=CCOCn1cc(F)c(=O)[nH]c1=O`, the GI50 in [1] was > 100 µM (inactive); in test [2], > 100 µM (inactive); in [3] it was 31.6 µM (inactive); in test [4], > 100 µM (inactive); in test [6], > 100 µM (inactive); in test [7] it was > 100 µM (inactive). The GI50 in test [8], in test [9], in [10], in test [11], in test [20] and in test [12] was > 100 µM (inactive) in each case. Also, the GI50 in test [13] is > 100 µM (inactive); in test [14], > 100 µM; in test [15] it was > 100 µM (inactive); in test [16], > 100 µM (inactive); in [17] it was > 100 µM (inactive); in [18] it was > 100 µM (inactive). For the same molecule, in test [19], the GI50 is > 100 µM (inactive).

Regarding `CSc1nc(C)c2c(n1)SCC2`, the GI50 in test [1], in test [2], in [3], in test [4], in test [5] and in test [6] was > 10 µM (inactive) throughout. The GI50 in [7], in test [8], in [9], in [10], in test [11] and in test [12] was > 10 µM (inactive) in each case. The GI50 was > 10 µM (inactive) in test [13]; > 10 µM in [14]; > 10 µM (inactive) in test [15]; > 10 µM (inactive) in [16]; > 10 µM (inactive) in [17]; > 10 µM (inactive) in test [18]. For the same molecule, the GI50 in test [19] was > 10 µM (inactive).

Consider `N#CC(/N=N/c1ccccc1)c1nc2ccccc2o1` (stereo not given), for which the GI50 is 49.4 µM (inactive) in test [1]; 21.7 µM (inactive) in test [2]; 20.3 µM (inactive) in test [4]; 15 µM (inactive) in test [5]; 21.8 µM (inactive) in test [6]; 86.9 µM (inactive) in test [7]. Moreover, the GI50 was 61.4 µM (inactive) in [9]; 18.6 µM (inactive) in test [10]; 8.13 µM (inactive) in test [11]; > 100 µM (inactive) in [20]; 83.4 µM (inactive) in [12]; 30.7 µM (inactive) in test [13]. Also, the GI50 is > 100 µM in test [14]; > 100 µM (inactive) in test [16]; 22.2 µM (inactive) in test [17]; 19.3 µM (inactive) in test [18]; 24.5 µM (inactive) in [19].

With `O=P1(c2ccccc2)C2=CCC=CC2C(c2ccccc2)N1Cc1ccccc1` (stereo not given), the GI50 was 16.1 µM (inactive) in test [1]; 15.2 µM (inactive) in test [2]; 19.6 µM (inactive) in [4]; 12.4 µM (inactive) in test [5]; 15.5 µM (inactive) in test [6]; 15.2 µM (inactive) in [7]. In addition, the GI50 in [8] is 21 µM (inactive); in test [9] it was 11.6 µM (inactive); in test [10], 12.3 µM (inactive); in test [11], 16.3 µM (inactive); in test [12] it was 15.6 µM (inactive); in test [13], 22.4 µM (inactive). Moreover, the GI50 is 14.5 µM in test [14]; 15.6 µM (inactive) in test [16]; 14.7 µM (inactive) in test [17]; 15.5 µM (inactive) in test [18]; 20 µM (inactive) in test [19].

As to `CC(O)C1(CNc2cc(Cl)nc(N)n2)CCCCC1` (stereo not given), the GI50 in test [1] is 35.6 µM (inactive); in test [2], > 100 µM (inactive); in [3] it was 69.5 µM (inactive); in test [4], > 100 µM (inactive); in test [5], 69.3 µM (inactive); in [6] it was > 100 µM (inactive). Also, the GI50 was 45.6 µM (inactive) in [7]; > 100 µM (inactive) in [8]; > 100 µM (inactive) in test [9]; 83.6 µM (inactive) in test [10]; 59 µM (inactive) in test [11]; 82.6 µM (inactive) in test [12]. Moreover, the GI50 in test [13] is > 100 µM (inactive); in test [14] it was > 100 µM; in test [15] it was 91 µM (inactive); in test [16], > 100 µM (inactive); in test [17] it was > 100 µM (inactive); in [18], > 100 µM (inactive). In addition, the GI50 in [19] was > 100 µM (inactive).

Consider `OCc1cc2c(ccc3sc4ccc5sc6ccc7ncccc7c6c5c4c32)s1`, for which the GI50 in test [1] was 11.5 µM (inactive); in test [2], 8.47 µM (inactive); in test [3], 3.89 µM (inactive); in test [4] it was 12.7 µM (inactive); in [5] it was 29.6 µM (inactive); in test [6], 3.55 µM (inactive). Moreover, the GI50 was 4.08 µM (inactive) in [7]; 28.2 µM (inactive) in test [8]; 15.5 µM (inactive) in test [9]; 8.22 µM (inactive) in test [11]; 11 µM (inactive) in test [12]; 11.3 µM (inactive) in test [13]. Also, the GI50 in test [14] was 10.7 µM; in [15], 12.6 µM (inactive); in [16] it was 24.3 µM (inactive); in test [18], 2.72 µM (inactive); in [19], 31.8 µM (inactive).
